Test results from US10576078B2 (Council of Scientific & Industrial Research, priority 2017, dated 2020).
Read-outs that look alike come from different tables or passages of the source.

Assays:
[1] = system: chronic phase CML patient-derived mononuclear cells (CP-CML cells); test: Apoptosis by annexin V/PI staining in CP-CML cells; format: cell-based, Human; conditions: 5 μM, 48 h
Source text: FD; freshly diagnosed, Resp; imatinib-responder, Res; imatinib-resistant.
Peripheral blood samples were obtained from chronic phase (CP-CML), accelerated phase (AP) or blast crisis (BC) CML patients (BCR− ABL+ v e freshly diagnosed, Imatinib-resistant or responders), and healthy donors from King George's Medical University (Clinical Hematology and Medical Oncology division), Lucknow, following ethical approval (Approval No: 1638/R. Cell-12) as per institutional ethical guidelines after written consent. Peripheral blood mononuclear cells (PBMC) were isolated on Percoll (Sigma) density gradient by centrifugation. Briefly, the blood was collected in vials coated with trisodium citrate buffer. Cells were then centrifuged 700 g for 10 min and plasma was removed. The pellet was resuspended in 6 ml Hank's balanced salt solution (HBSS; Invitrogen, Thermo Fisher Scientific), and then 2 ml of 6% Dextran in HBSS was added to it. Cells were then incubated at 37° C. for 30 min. The supernatant was then collected and centrifuged at 300 g for 5 min. The pellet was then resuspended in 2 ml HBSS supplemented with 0.18% glucose and loaded onto percoll gradient. PBMCs were then isolated by centrifugation.

[2] = system: stat5; test: Immunoblotting of stat5 expression and phosphorylation in K562 cells; format: cell-based, Human
Experimental: K562 cells were treated as indicated for 72 h and stat5 expression was assessed by immunoblotting. Pioglitazone (Pio) was used as a positive control. Data is one representative of 3 independent experiments.
K562 cells were treated as indicated for 30 min and stat5 phosphorylation at Y694 or CrkL phosphorylation at Y207 were assessed by immunoblotting. Total stat5 or β-actin expression was assessed to ensure equal loading. Pio was used as a negative control and IMT was used as a positive control. Data is one representative of 3 independent experiments.
K562 cells were cultured in 6 well plates and treated as indicated in figures or descriptions of FIG. 1E, FIG. 1G and FIG. 2D-E. Cells were then homogenized in lysis buffer containing 50 mM Tris-HCl, pH 7.5, 150 mM NaCl, 1% NP40, 5 mM EDTA, 1 mM DTT, protease and phosphatase inhibitor cocktails (Sigma) and incubated on ice for 30 min followed by 5 cycles of freeze-thaw. Samples were then centrifuged at 14000 rpm at 4° C. for 30 min. Supernatants were then quantified by Bichinchonic acid (Sigma)-based protein estimation. Equal amount of proteins were solubilized in Laemmli buffer, and were resolved by 10%-12% SDS PAGE and transferred onto PVDF membranes (Millipore; Billerica, Mass.). […] Immunoreactivity was detected using a chemiluminescent HRP Substrate (Millipore) in a LAS 4010 Chemi-doc Imager (GE Healthcare, Little Chalfont, UK). […]

[3] = cited from earlier work
[4] = system: K562 cells; test: K562 cell viability, CellTiter-Glo luminescent assay; format: cell-based, Human; conditions: 48 h; for IC50: Homo sapiens
Experimental: K562 cells were treated with indicated concentrations of CFZ for 24 h or 48 h, cell viability was then assessed using the CellTiter-Glo luminescent cell viability assay (Promega). Data is mean±SEM of three independent experiments (each in triplicates). IC50 was calculated using Graphpad prism 5 software.
K562 cells were treated as indicated for 48 h and cell viability was determined by CellTiter-Glo luminescent cell viability assay (A) graphical representation of mean±SEM of three independent experiments.
Determination of CFZ's Effect on Cell Viability and Apoptosis • a. CellTitre-Glo assay: Cell viability (in FIG. 1B, FIG. 4 and FIG. 6A) assays was performed using the ATP-based CellTiter-Glo Luminescent cell viability assay (Promega Madison, Wis.) as per the manufacturer's instruction. Briefly, (1.25×10^5) K562 cells/ml (FIG. 1B and FIG. 4) or CD34+ cells from healthy donors (FIG. 6A) were cultured in 48-well plates and were treated as indicated in the respective figures and figure descriptions (vehicle; V=0.1% DMSO). Cells were then incubated with CellTitre-Glo reagent for 15 min. Luminescence was recorded in a GloMax-96 Microplate luminometer (Promega, Madison, Wis.) with an integration time of 1 s per well. • b. Analysis of apoptosis by Annexin V staining and flow cytometry • K562 (FIG. 1C-D) and primary CP-CML cells (FIG. 1H-I) were cultured in 6 well plates (2×10^5 cells/well) and were treated with indicated concentrations of compounds as described in respective figures and their descriptions. Cells were then harvested and washed, and incubated in binding buffer (Annexin V Binding Buffer, BD Pharmingen) with 0.3% Annexin V-FITC and PI for 15 min at room temperature in dark. Apoptosis was measured by FACSCalibur flow cytometer (Becton Dickenson, San Jose, Calif.). • c. TUNEL assay • Pro-apoptotic potential was analysed using a Fluorometric APO-BrdU™ TUNEL Assay Kit (Invitrogen) according to the manufacturer's protocol (FIG. 1F). Cells were treated with Vehicle (0.1% DMSO) or CFZ (5 μM) for 48 h. Cells were then fixed in formaldehyde (4%) for 25 min at 4° C., permeabilized with 0.2% Triton-X100 and washed with PBS. Cells were then incubated in Terminal Deoxynucleotidyl Transferase (TdT) reaction buffer without TdT enzyme for 7 minutes at room temperature and then in TdT buffer with TdT enzyme at 37° C. in dark. After termination of TdT reaction, cells were stained with 5 μg/ml of PI for 15 min in dark followed by washing and analysed with fluorescence microscopy.

[5] = system: Peripheral blood mononuclear cells from control donors; test: Apoptosis by annexin V/PI staining in PBMC from control donors; format: cell-based, Human; conditions: 5 μM, 48 h

**Q.** Which “efficacy of apoptosis induction” value ([1]; CP-CML cells from freshly diagnosed patients) does the source give for `CC(C)/N=c1\cc2n(-c3ccc(Cl)cc3)c3ccccc3nc-2cc1Nc1ccc(Cl)cc1` [CFZ, Clofazimine] here?
**A.** comparable to imatinib

**Q.** And the “efficacy of apoptosis induction” value ([1]; CP-CML cells from imatinib responders)?
**A.** comparable to imatinib

**Q.** What about the “efficacy of apoptosis induction versus dasatinib” value ([1]; CP-CML cells harboring BCR-ABL mutation F359V) of the same compound?
**A.** higher

**Q.** What about the “efficacy of apoptosis induction versus dasatinib” value ([1]; CP-CML cells harboring BCR-ABL mutation M244V) of the same compound?
**A.** comparable

**Q.** What about the “efficacy of apoptosis induction versus dasatinib” value ([1]; CP-CML cells harboring BCR-ABL mutation M351T) of the same compound?
**A.** higher

**Q.** What about the “efficacy of apoptosis induction versus dasatinib” value ([1]; CP-CML cells harboring BCR-ABL mutation Y253H) of the same compound?
**A.** higher

**Q.** And the “efficacy of apoptosis induction” value ([1]; imatinib-resistant CP-CML cells)?
**A.** higher than imatinib and dasatinib

**Q.** What about the stat5 phosphorylation ([2]; 30 min, Y694) of the same compound?
**A.** without altering

**Q.** And the stat5 protein expression ([2]; 72 h, FIG. 2D)?
**A.** suppressed

**Q.** And the “average human plasma level of CFZ” value ([3]; following daily oral administration of 100 mg CFZ)?
**A.** 0.7 mg/L

**Q.** And the “human plasma Cmax of CFZ” value ([3]; human plasma)?
**A.** 0.4 to 4 µg/mL

**Q.** What about the “combination index (CI)” value ([4]; CFZ with dasatinib, Compusyn) of the same compound?
**A.** < 1

**Q.** And the “combination index (CI)” value ([4]; CFZ with imatinib, Compusyn program)?
**A.** < 1

**Q.** What about the IC50 ([4]; FIG. 1B, read-out: IC50 (48 h), reduction of viability) of the same compound?
**A.** 5.85 µM

**Q.** What about the IC50 ([4]; drug alone, FIG. 4A, read-out: IC50, K562 cell viability assay (48 h)) of the same compound?
**A.** 4.13 µM

**Q.** What about the “apoptosis in cells from control donors” value [5] of the same compound?
**A.** didn't affect
